# Results reported in patent US8609870B2, “Treating various disorders using TrkB agonists” (Emory University, priority 2008, dated 2013).
# Assays:
# TrkA = TrkA (Mus musculus, UniProt Q3UFB7); assay: TrkA phosphorylation in mouse brain after i.p. injection; type: in vivo; design: endogenous in cells; details: mice, 5 mg/kg i.p.
# TrkB = target: T1, TrkB (Homo sapiens, UniProt Q16620); assay: TrkB dimerization assay (GST pull-down, transfected HEK293 cells); type: cell-based
# T1 construct: expressed in transfected cells; host or cells: HEK293
# Protocol: HEK293 cells transfected with GST-TrkB and HA-TrkA or TrkB were washed once in PBS, and lysed in 1 ml lysis buffer (50 mM Tris, pH 7.4, 150 mM NaCl, 1 mM EDTA, 0.5% Triton X-100, 1.5 mM Na3VO4, 50 mM NaF, 10 mM sodium pyrophosphate, 10 mM sodium β-glycerophosphate, 1 mM phenylmethylsulfonyl fluoride (PMSF), […], […] leupeptin, […] pepstatin A), and centrifuged for 10 minutes at 14,000×g at 4° C. The supernatant was then transferred to a fresh tube and transfected TrkB receptor was pulled down with glutathione beads. The coprecipitated proteins were resolved on SDS-PAGE. The samples were transferred to a nitrocellular membrane, and immunoblotting analysis was performed with a variety of antibodies.
# BDNF is known to bind the TrkB receptor and provoke its dimerization (Barbacid, J. Neurobiol., 25:1386-1403, 1994; Klein et al, Cell, 66:395-403, 1991). To explore whether an identified active compound triggers TrkB receptor dimerization, HEK293 cells are cotransfected with GST-TrkB and HA-TrkB or HA-TrkA. The cells then are treated with BDNF or an identified active compound (0.5 μM) for 30 minutes. […]
# [1] = target: TrkB extra-cellular domain (ECD) (Homo sapiens, UniProt Q16620); assay: [3H]-deoxygedunin ligand binding assay, TrkB ECD (Scatchard plot)
# Protocol: Purified TrkB ECD or ICD proteins (10 μg/each) were incubated with different [^3H-deoxygedunin] in 1 ml binding buffer (0.05 M Na/K phosphate buffer (pH 7.1), 200 mM NaCl) (1 nM [^3H]deoxygedunin˜82300 cpm) at 4° C. for 10 minutes. After incubation, the reaction mixture was loaded on filter paper and washed with 3×5 ml Tris buffer (100 mM Tris, pH 7.1). The dried filter paper was put into a small vial and subjected to liquid scintillation counter analysis. The value of the dissociation constant and the number of sites were obtained from Scatchard plots by using the equation r/[L]free=n/Kd−r/Kd, where r is the ratio of the concentration of bound ligand to the total protein concentration and n is the number of binding sites.
# To determine whether an identified active compound physically and directly binds to the TrkB receptor, in vitro binding assays can be conducted with purified TrkB extracellular domain (ECD) and intracellular domain (ICD) recombinant proteins. Purified TrkB ECD and ICD (10 μg of each) are incubated with different concentrations of ^3H-labeled identified active compound in 1 ml of binding buffer (0.05M Na/K phosphate buffer, pH 7.1, 200 mM NaCl) at 4° C. for 10 minutes. After the incubation, the reaction mixture is loaded on filter paper. The mixture is washed three times with Tris buffer (100 mM Tris, pH 7.1), and the dried filter paper is put into a small vial and subjected to liquid scintillation counter analysis. […] The value of the dissociate constant and the number of sites will then be obtained from Scatchard plots using the equation r/[L]free=n/Kd−r/Kd, where r is the ratio of the concentration of bound ligand to the total protein concentration and n is the number of binding sites.
# To determine whether deoxygedunin binds the intra-cellular domain (ICD) or extra-cellular domain (ECD) of the TrkB receptor, ligand binding assays with [^3H]-deoxygedunin were performed. […] The coprecipitated HA-TrkB was also prominently tyrosine phosphorylated (see FIG. 14, 3rd panel).
# C57BL/6 mice = assay: KA-induced apoptosis in hippocampus (TUNEL staining); type: in vivo, mouse; details: 5 mg/kg i.p. followed by 20 mg/kg KA, 5 days
# TrkB F616A knockin mice = assay: KA-provoked apoptosis (caspase-3) in TrkB F616A knockin mice; type: in vivo, mouse; details: TrkB F616A mice, without 1NMPP1
# Protocol: To determine if 1NMPP1 makes neurons treated with an identified active compound vulnerable to KA-provoked neuronal cell death, TrkF616A knockin mice are fed with 1NMPP1 (25 mM) in drinking water one day prior to pharmacological reagent treatment. The next day, the mice are intraperitoneally injected with KA (25 mg/kg), or an identified active compound (5 mg/kg) 4 hours prior to KA injection. The control mice are injected with either KA or an identified active compound alone, or the mice are administered an identified active compound 4 hours before KA. After 4 days, the mice are sacrificed and the brains are homogenized and ultracentrifuged. The supernatant then is employed for SDS-PAGE and immunoblotting analysis.
# […] inversely correlated with TrkB activation by deoxygedunin (FIG. 20, top and middle panels).
# TrkB extra-cellular domain (ECD), sequence (Q16620 32-430 limits assumed): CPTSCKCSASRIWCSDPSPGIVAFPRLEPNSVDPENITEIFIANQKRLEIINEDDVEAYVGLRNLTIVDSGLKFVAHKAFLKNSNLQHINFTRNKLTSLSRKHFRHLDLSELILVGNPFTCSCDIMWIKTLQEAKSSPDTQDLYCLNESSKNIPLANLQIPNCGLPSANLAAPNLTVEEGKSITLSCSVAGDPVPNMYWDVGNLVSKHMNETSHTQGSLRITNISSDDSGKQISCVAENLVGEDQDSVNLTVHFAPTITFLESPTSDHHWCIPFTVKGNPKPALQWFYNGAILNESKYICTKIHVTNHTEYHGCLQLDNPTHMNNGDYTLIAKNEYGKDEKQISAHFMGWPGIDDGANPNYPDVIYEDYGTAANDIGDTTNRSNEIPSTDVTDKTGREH
# TrkA, sequence (Q3UFB7 34-799): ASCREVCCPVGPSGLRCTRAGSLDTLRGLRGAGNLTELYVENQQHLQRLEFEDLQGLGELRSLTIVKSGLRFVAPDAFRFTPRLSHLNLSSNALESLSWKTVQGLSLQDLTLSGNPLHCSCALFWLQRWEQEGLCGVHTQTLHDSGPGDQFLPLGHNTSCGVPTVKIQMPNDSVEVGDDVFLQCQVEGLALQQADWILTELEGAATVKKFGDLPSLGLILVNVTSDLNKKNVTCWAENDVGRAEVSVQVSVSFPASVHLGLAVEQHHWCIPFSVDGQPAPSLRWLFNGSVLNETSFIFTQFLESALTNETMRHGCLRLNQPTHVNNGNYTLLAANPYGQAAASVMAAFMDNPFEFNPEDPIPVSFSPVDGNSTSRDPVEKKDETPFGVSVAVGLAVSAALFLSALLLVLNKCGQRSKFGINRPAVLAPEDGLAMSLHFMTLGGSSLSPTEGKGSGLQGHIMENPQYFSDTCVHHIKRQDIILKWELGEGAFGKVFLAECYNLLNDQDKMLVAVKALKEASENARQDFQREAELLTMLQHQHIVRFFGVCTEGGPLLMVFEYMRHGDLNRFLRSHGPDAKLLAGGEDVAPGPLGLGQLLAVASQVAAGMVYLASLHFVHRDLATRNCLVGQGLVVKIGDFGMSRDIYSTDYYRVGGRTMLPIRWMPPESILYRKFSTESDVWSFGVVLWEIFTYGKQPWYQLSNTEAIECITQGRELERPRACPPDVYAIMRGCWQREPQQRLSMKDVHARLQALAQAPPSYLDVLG
# T1 sequence (Q16620 32-822, species assumed): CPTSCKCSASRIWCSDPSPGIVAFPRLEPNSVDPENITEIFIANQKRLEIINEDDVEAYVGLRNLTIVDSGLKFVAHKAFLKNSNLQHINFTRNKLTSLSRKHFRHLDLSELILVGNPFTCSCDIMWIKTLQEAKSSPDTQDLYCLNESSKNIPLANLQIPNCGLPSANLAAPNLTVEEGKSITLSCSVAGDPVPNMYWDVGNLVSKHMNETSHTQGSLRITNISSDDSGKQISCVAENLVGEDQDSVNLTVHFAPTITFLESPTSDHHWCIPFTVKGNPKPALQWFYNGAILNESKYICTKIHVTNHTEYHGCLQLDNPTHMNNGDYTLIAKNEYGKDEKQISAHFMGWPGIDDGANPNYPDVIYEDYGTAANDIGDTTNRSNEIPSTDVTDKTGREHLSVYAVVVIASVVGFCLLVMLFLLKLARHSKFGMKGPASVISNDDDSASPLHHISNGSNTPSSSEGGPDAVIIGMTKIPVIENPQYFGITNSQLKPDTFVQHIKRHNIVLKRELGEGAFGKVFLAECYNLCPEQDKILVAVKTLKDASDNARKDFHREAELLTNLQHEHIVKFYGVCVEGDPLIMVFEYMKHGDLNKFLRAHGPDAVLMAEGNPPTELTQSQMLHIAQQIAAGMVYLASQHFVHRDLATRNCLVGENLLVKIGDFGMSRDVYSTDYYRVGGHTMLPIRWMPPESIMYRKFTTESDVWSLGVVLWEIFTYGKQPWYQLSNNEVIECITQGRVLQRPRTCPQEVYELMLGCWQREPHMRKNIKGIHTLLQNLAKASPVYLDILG
# T1 sequence (Q16620 32-822, species assumed): as above
structure (smiles),measurement,setting,value
CC(=O)O[C@@H]1C[C@H]2C(C)(C)C(=O)C=C[C@]2(C)[C@H]2CC[C@]3(C)C(=CC(=O)O[C@H]3c3ccoc3)[C@@]21C [deoxygedunin],TrkA phosphorylation in the brain,TrkA,not TrkA
same,TrkB dimerization,TrkB,robustly provoked TrkB dimerization with an effect even stronger than BDNF
same,Kd,"[1]; Scatchard plot analysis, read-out: binding constant Kd",1400 nM
same,major binding site in TrkB ECD (truncation assays),[1]; TrkB ECD truncation mutants,Ig2 domain
same,KA provoked apoptosis in the hippocampus (TUNEL staining),C57BL/6 mice,diminished
same,decrease of KA induced apoptosis in hippocampus,C57BL/6 mice,60%
same,KA-provoked apoptosis,TrkB F616A knockin mice,suppressed KA-provoked apoptosis
